Measurements published in patent US8030478B2, “Method for nucleic acid replication and novel artificial base pairs” (priority 2005, dated 2011).
Where two headings read alike, the source gives them in different places.

Columns and labels:
[1] = molecular target: T1, Klenow fragment lacking exonuclease activity (KF exo−) (Escherichia coli, UniProt P00582, D355A/E357A); format: biochemical, E. coli; conditions: 37° C.
T1 construct: enzyme solution of the Klenow fragment lacking exonuclease activity (KF exo^−, Amersham USB); purchased Amersham USB
T1 sequence (P00582 324-928 D355A/E357A): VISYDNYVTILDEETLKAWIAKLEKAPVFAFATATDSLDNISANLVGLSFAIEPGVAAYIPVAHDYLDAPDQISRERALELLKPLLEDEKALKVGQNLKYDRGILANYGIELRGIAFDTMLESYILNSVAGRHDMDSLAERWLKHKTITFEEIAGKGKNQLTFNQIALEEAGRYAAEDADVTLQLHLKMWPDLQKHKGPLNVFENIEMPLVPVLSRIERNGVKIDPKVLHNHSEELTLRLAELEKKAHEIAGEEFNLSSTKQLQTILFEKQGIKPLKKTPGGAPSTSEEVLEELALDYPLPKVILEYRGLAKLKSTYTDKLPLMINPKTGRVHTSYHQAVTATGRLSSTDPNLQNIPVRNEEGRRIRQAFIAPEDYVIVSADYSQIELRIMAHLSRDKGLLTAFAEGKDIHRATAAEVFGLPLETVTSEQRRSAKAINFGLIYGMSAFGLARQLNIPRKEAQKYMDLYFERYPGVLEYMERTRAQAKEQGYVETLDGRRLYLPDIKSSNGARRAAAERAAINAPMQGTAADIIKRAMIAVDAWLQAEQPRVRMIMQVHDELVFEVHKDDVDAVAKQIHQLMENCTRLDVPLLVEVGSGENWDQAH
Procedure: The single nucleotide insertion experiment was performed as described in documents (Non-patent Documents 30-32). A primer (20-mer) labeled with 6-carboxylfluorescein at the 5′-end was annealed with template DNA (35-mer) by heating at 95° C. and slow cooling to 4° C. in 100 mM Tris-HCl (pH 7.5) buffer containing 20 mM MgCl2, 2 mM DTT and 0.1 mg/ml bovine serum albumin. The primer-template duplex solution (10 μM, 5 μl) was mixed with 2 μl enzyme solution of the Klenow fragment lacking exonuclease activity (KF exo^−, Amersham USB). After the mixture was incubated for 2 minutes, each dNTP solution (3 μl) was added to this solution to start the reaction at 37° C. The amount of the enzyme used (5-50 nM), the reaction time (1-35 minutes) and the gradient concentration of each dNTP (0.3-1500 μM) were adjusted to ensure conditions giving 25% or less products. The reaction was stopped with 10 μl stop solution (95% formamide and 20 mM EDTA), and the mixture was immediately heated at 75° C. for 3 minutes. The diluted products were analyzed in an automated ABI377 DNA sequencer equipped with GeneScan software (version 3.0) (Non-patent Document 32). The relative velocity (v0) was calculated by dividing the extent of reaction by the reaction time, and then normalized to the enzyme concentration (20 nM) for the various enzyme concentrations used. Kinetic parameters (KM and Vmax) were obtained from Hanes-Woolf plots of [dNTP]/v0 against [dNTP].
Each parameter was averaged from 3 to 8 data sets.

[2] = molecular target: T7 RNA polymerase (Escherichia phage T7, UniProt P00573); conditions: for Composition of nucleotide incorporated as 5′ neighbor of A: Cp / Composition of nucleotide incorporated as 5′ neighbor of A: Up / Composition of nucleotide incorporated as 5′ neighbor of A: Ap / Composition of nucleotide incorporated as 5′ neighbor of A: Np (Pa′p) / Composition of nucleotide incorporated as 5′ neighbor of A: Gp: [α-32P]ATP; for Composition of nucleotide incorporated as 5′ neighbor of U: Np (Pa′p) / Composition of nucleotide incorporated as 5′ neighbor of U: Ap / Composition of nucleotide incorporated as 5′ neighbor of U: Gp / Composition of nucleotide incorporated as 5′ neighbor of U: Up / Composition of nucleotide incorporated as 5′ neighbor of U: Cp: [α-32P]UTP
Sequence of T7 RNA polymerase (P00573 whole entry): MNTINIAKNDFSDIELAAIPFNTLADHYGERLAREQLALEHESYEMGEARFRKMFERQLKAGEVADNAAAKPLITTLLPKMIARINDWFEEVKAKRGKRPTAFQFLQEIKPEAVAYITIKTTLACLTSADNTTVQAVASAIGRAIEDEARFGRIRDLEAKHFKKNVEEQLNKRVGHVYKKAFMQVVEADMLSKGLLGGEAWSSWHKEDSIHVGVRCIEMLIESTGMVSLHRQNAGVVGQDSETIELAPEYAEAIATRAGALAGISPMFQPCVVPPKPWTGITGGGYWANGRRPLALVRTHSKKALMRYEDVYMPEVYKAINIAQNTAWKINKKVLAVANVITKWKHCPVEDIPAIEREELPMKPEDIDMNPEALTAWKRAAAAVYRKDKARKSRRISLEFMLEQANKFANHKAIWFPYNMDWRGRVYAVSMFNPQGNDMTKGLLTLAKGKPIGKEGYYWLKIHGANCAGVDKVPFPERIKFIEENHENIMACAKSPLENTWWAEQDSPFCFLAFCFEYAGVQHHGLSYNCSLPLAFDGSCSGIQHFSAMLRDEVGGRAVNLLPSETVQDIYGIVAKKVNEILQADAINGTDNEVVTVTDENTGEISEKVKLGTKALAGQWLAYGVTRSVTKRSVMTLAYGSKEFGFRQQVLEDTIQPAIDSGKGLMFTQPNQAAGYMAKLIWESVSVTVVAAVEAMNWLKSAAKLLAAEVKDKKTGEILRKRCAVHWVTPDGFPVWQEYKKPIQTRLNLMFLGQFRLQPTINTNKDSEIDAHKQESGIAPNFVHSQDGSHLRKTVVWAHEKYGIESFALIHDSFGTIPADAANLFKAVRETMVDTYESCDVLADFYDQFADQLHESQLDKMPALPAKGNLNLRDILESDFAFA
Procedure: Transcription (20 μl) was accomplished in 40 mM Tris-HCl buffer (pH 8.0) containing 24 mM MgCl2, 2 mM spermidine, 5 mM DTT, 0.01% Triton X-100, 1-3 mM each natural NTP, 0-3 mM Pa′TP, 0-3 mM DsTP, 10 mM GMP, 2 μM template DNA (for 17-mer transcript synthesis) or 0.5 μM template DNA (for tRNA transcript synthesis), and 2.5 units/μl T7 RNA polymerase (TAKARA). […] For nucleotide composition analysis in transcripts (Non-patent Documents 17 and 33), the transcripts were internally labeled with 2 μCi [α-^32P]UTP or [α-^32P]ATP (Amersham). After the transcription, the products were digested with 0.75 units of RNase T2 at 37° C. for 2 hours in 10 μl of 15 mM sodium acetate buffer (pH 4.5). For 17-mer analysis, 0.05 A260 units of E. coli tRNA (Sigma) was added to the digestion reaction solution. The digestion products were analyzed by 2D-TLC (HPTLC plate, 100×100 mm, Merck). The developing solvents used for the first and second dimensions were isobutyric acid-ammonia-water (66:1:33 v/v/v) and isopropyl alcohol-HCl-water (70:15:15 v/v/v or 75:15:10 v/v/v for Pa′ transcripts), respectively. Spots of the labeled nucleotides on the TLC plate were analyzed with a bio-imaging analyzer.
The internally ^32P-labeled transcripts were digested with Rnase T2, and the resulting labeled nucleoside 3′-monophosphates were analyzed by 2D thin-layer chromatography (2D-TLC).

[3] = Entry 7, template temp35Ds-3, natural NTP 1 mM, Pa′ 1 mM, theoretical [0]
[4] = Entry 7, template temp35Ds-3, natural NTP 1 mM, Pa′ 1 mM, theoretical [1]
[5] = Entry 8, template temp35Ds-3, natural NTP 1 mM, Pa′ 3 mM, theoretical [0]
[6] = Entry 8, template temp35Ds-3, natural NTP 1 mM, Pa′ 3 mM, theoretical [1]
[7] = Entry 9, template temp35A-3, natural NTP 1 mM, Pa′ 1 mM, theoretical [0]
[8] = Entry 9, template temp35A-3, natural NTP 1 mM, Pa′ 1 mM, theoretical [1]
[9] = Entry 10, template temp35A-3, natural NTP 1 mM, Pa′ 3 mM, theoretical [0]
[10] = Entry 10, template temp35A-3, natural NTP 1 mM, Pa′ 3 mM, theoretical [1]
[11] = Entry 11, template temp35G-3, natural NTP 1 mM, Pa′ 1 mM, theoretical [0]
[12] = Entry 11, template temp35G-3, natural NTP 1 mM, Pa′ 1 mM, theoretical [1]
[13] = Entry 12, template temp35G-3, natural NTP 1 mM, Pa′ 3 mM, theoretical [0]
[14] = Entry 12, template temp35G-3, natural NTP 1 mM, Pa′ 3 mM, theoretical [1]
[15] = Entry 25, template DNA12, natural NTP 3 mM, Pa′ 3 mM, theoretical [6]
[16] = Entry 27, template DNAcont4, natural NTP 3 mM, Pa′ 3 mM, theoretical [6]
[17] = Entry 32, template DNA11, natural NTP 3 mM, Pa′ 3 mM, theoretical [4]
[18] = Entry 33, template DNA12, natural NTP 3 mM, Pa′ 3 mM, theoretical [4]
[19] = Entry 35, template DNAcont4, natural NTP 3 mM, Pa′ 3 mM, theoretical [4]

## Cc1cn([C@H]2C[C@H](O)[C@@H](COP(=O)(O)OP(=O)(O)OP(=O)(O)O)O2)c(=O)[nH]c1=O [dTTP, reference compound]
[1]; template (N) = A, temp35N-1
  Efficiency (Vmax/KM): 4.0 × 10^6 % min^−1M^−1
  Km: 0.7 µM
  Vmax: 2.8 % min^−1
[1]; template (N) = Ds, temp35N-1
  Efficiency (Vmax/KM): 1.9 × 10^3 % min^−1M^−1
  Km: 220 µM
  Vmax: 0.41 % min^−1
[1]; template (N) = G, temp35N-1
  Efficiency (Vmax/KM): 2.1 × 10^3 % min^−1M^−1
  Km: 140 µM
  Vmax: 0.29 % min^−1
[1]; template (N) = Pa, temp35N-2
  Efficiency (Vmax/KM): 1.1 × 10^2 % min^−1M^−1
  Km: 880 µM
  Vmax: 0.097 % min^−1
[1]; template (N) = Pa′, temp35N-2
  Efficiency (Vmax/KM): 1.0 × 10^2 % min^−1M^−1
  Km: 1400 µM
  Vmax: 0.14 % min^−1

## CC#Cc1cc(C=O)n([C@@H]2O[C@H](COP(=O)(O)OP(=O)(O)OP(=O)(O)O)[C@@H](O)[C@H]2O)c1 [Pa′TP, 4-Propynyl-1-(β-D-ribofuranosyl)pyrrole-2-carbaldehyde 5′-triphosphate]
[2]; [3]
  Composition of nucleotide incorporated as 5′ neighbor of A: Cp: 0.01 [0]
  Composition of nucleotide incorporated as 5′ neighbor of A: Up: 0.02 [0]
[2]; [4]
  Composition of nucleotide incorporated as 5′ neighbor of A: Ap: 1.03 [1]
  Composition of nucleotide incorporated as 5′ neighbor of A: Np (Pa′p): 0.95 [1]
[2]; Entry 7, template temp35Ds-3, natural NTP 1 mM, Pa′ 1 mM, theoretical [2]
  Composition of nucleotide incorporated as 5′ neighbor of A: Gp: 2.00 [2]
[2]; [5]
  Composition of nucleotide incorporated as 5′ neighbor of A: Cp: 0.01 [0]
  Composition of nucleotide incorporated as 5′ neighbor of A: Up: 0.02 [0]
[2]; [6]
  Composition of nucleotide incorporated as 5′ neighbor of A: Ap: 1.01 [1]
  Composition of nucleotide incorporated as 5′ neighbor of A: Np (Pa′p): 0.97 [1]
[2]; Entry 8, template temp35Ds-3, natural NTP 1 mM, Pa′ 3 mM, theoretical [2]
  Composition of nucleotide incorporated as 5′ neighbor of A: Gp: 1.99 [2]
[2]; [7]
  Composition of nucleotide incorporated as 5′ neighbor of A: Cp: n.d. [0]
  Composition of nucleotide incorporated as 5′ neighbor of A: Np (Pa′p): n.d. [0]
[2]; [8]
  Composition of nucleotide incorporated as 5′ neighbor of A: Ap: 0.99 [1]
  Composition of nucleotide incorporated as 5′ neighbor of A: Up: 1.03 [1]
[2]; Entry 9, template temp35A-3, natural NTP 1 mM, Pa′ 1 mM, theoretical [2]
  Composition of nucleotide incorporated as 5′ neighbor of A: Gp: 1.98 [2]
[2]; [9]
  Composition of nucleotide incorporated as 5′ neighbor of A: Cp: 0.01 [0]
  Composition of nucleotide incorporated as 5′ neighbor of A: Np (Pa′p): n.d. [0]
[2]; [10]
  Composition of nucleotide incorporated as 5′ neighbor of A: Ap: 0.99 [1]
  Composition of nucleotide incorporated as 5′ neighbor of A: Up: 1.00 [1]
[2]; Entry 10, template temp35A-3, natural NTP 1 mM, Pa′ 3 mM, theoretical [2]
  Composition of nucleotide incorporated as 5′ neighbor of A: Gp: 1.99 [2]
[2]; [11]
  Composition of nucleotide incorporated as 5′ neighbor of A: Np (Pa′p): n.d. [0]
  Composition of nucleotide incorporated as 5′ neighbor of A: Up: 0.01 [0]
[2]; [12]
  Composition of nucleotide incorporated as 5′ neighbor of A: Ap: 1.01 [1]
  Composition of nucleotide incorporated as 5′ neighbor of A: Cp: 1.00 [1]
[2]; Entry 11, template temp35G-3, natural NTP 1 mM, Pa′ 1 mM, theoretical [2]
  Composition of nucleotide incorporated as 5′ neighbor of A: Gp: 1.98 [2]
[2]; [13]
  Composition of nucleotide incorporated as 5′ neighbor of A: Np (Pa′p): n.d. [0]
  Composition of nucleotide incorporated as 5′ neighbor of A: Up: 0.01 [0]
[2]; [14]
  Composition of nucleotide incorporated as 5′ neighbor of A: Ap: 1.00 [1]
  Composition of nucleotide incorporated as 5′ neighbor of A: Cp: 1.01 [1]
[2]; Entry 12, template temp35G-3, natural NTP 1 mM, Pa′ 3 mM, theoretical [2]
  Composition of nucleotide incorporated as 5′ neighbor of A: Gp: 1.98 [2]
[2]; Entry 24, template DNA11, natural NTP 3 mM, Pa′ 3 mM, theoretical [0]
  Composition of nucleotide incorporated as 5′ neighbor of A: Up: 0.09 [0]
[2]; Entry 24, template DNA11, natural NTP 3 mM, Pa′ 3 mM, theoretical [1]
  Composition of nucleotide incorporated as 5′ neighbor of A: Np (Pa′p): 0.97 [1]
[2]; Entry 24, template DNA11, natural NTP 3 mM, Pa′ 3 mM, theoretical [5]
  Composition of nucleotide incorporated as 5′ neighbor of A: Ap: 5.08 [5]
[2]; Entry 24, template DNA11, natural NTP 3 mM, Pa′ 3 mM, theoretical [6]
  Composition of nucleotide incorporated as 5′ neighbor of A: Gp: 5.98 [6]
[2]; Entry 24, template DNA11, natural NTP 3 mM, Pa′ 3 mM, theoretical [7]
  Composition of nucleotide incorporated as 5′ neighbor of A: Cp: 6.88 [7]
[2]; Entry 25, template DNA12, natural NTP 3 mM, Pa′ 3 mM, theoretical [0]
  Composition of nucleotide incorporated as 5′ neighbor of A: Up: 0.07 [0]
[2]; Entry 25, template DNA12, natural NTP 3 mM, Pa′ 3 mM, theoretical [1]
  Composition of nucleotide incorporated as 5′ neighbor of A: Np (Pa′p): 0.98 [1]
[2]; [15]
  Composition of nucleotide incorporated as 5′ neighbor of A: Ap: 6.05 [6]
  Composition of nucleotide incorporated as 5′ neighbor of A: Gp: 5.94 [6]
[2]; Entry 25, template DNA12, natural NTP 3 mM, Pa′ 3 mM, theoretical [7]
  Composition of nucleotide incorporated as 5′ neighbor of A: Cp: 6.96 [7]
[2]; Entry 27, template DNAcont4, natural NTP 3 mM, Pa′ 3 mM, theoretical [0]
  Composition of nucleotide incorporated as 5′ neighbor of A: Np (Pa′p): n.d. [0]
[2]; Entry 27, template DNAcont4, natural NTP 3 mM, Pa′ 3 mM, theoretical [1]
  Composition of nucleotide incorporated as 5′ neighbor of A: Up: 1.06 [1]
[2]; [16]
  Composition of nucleotide incorporated as 5′ neighbor of A: Ap: 6.04 [6]
  Composition of nucleotide incorporated as 5′ neighbor of A: Gp: 6.00 [6]
[2]; Entry 27, template DNAcont4, natural NTP 3 mM, Pa′ 3 mM, theoretical [7]
  Composition of nucleotide incorporated as 5′ neighbor of A: Cp: 6.90 [7]
[2]; Entry 32, template DNA11, natural NTP 3 mM, Pa′ 3 mM, theoretical [0]
  Composition of nucleotide incorporated as 5′ neighbor of U: Np (Pa′p): 0.01 [0]
[2]; Entry 32, template DNA11, natural NTP 3 mM, Pa′ 3 mM, theoretical [2]
  Composition of nucleotide incorporated as 5′ neighbor of U: Ap: 2.01 [2]
[2]; [17]
  Composition of nucleotide incorporated as 5′ neighbor of U: Gp: 3.98 [4]
  Composition of nucleotide incorporated as 5′ neighbor of U: Up: 4.00 [4]
[2]; Entry 32, template DNA11, natural NTP 3 mM, Pa′ 3 mM, theoretical [5]
  Composition of nucleotide incorporated as 5′ neighbor of U: Cp: 5.01 [5]
[2]; Entry 33, template DNA12, natural NTP 3 mM, Pa′ 3 mM, theoretical [0]
  Composition of nucleotide incorporated as 5′ neighbor of U: Np (Pa′p): 0.01 [0]
[2]; Entry 33, template DNA12, natural NTP 3 mM, Pa′ 3 mM, theoretical [2]
  Composition of nucleotide incorporated as 5′ neighbor of U: Ap: 2.00 [2]
[2]; [18]
  Composition of nucleotide incorporated as 5′ neighbor of U: Cp: 4.05 [4]
  Composition of nucleotide incorporated as 5′ neighbor of U: Gp: 3.94 [4]
  Composition of nucleotide incorporated as 5′ neighbor of U: Up: 4.01 [4]
[2]; Entry 35, template DNAcont4, natural NTP 3 mM, Pa′ 3 mM, theoretical [0]
  Composition of nucleotide incorporated as 5′ neighbor of U: Np (Pa′p): n.d. [0]
[2]; Entry 35, template DNAcont4, natural NTP 3 mM, Pa′ 3 mM, theoretical [2]
  Composition of nucleotide incorporated as 5′ neighbor of U: Ap: 2.02 [2]
[2]; [19]
  Composition of nucleotide incorporated as 5′ neighbor of U: Gp: 4.00 [4]
  Composition of nucleotide incorporated as 5′ neighbor of U: Up: 3.97 [4]
[2]; Entry 35, template DNAcont4, natural NTP 3 mM, Pa′ 3 mM, theoretical [5]
  Composition of nucleotide incorporated as 5′ neighbor of U: Cp: 5.01 [5]
